Measured values from patent US11913952B2, “Methods for detecting peptide/MHC/TCR binding” (Prognosys Biosciences, Inc., priority 2013, dated 2024).
Where two headings read alike, the source gives them in different places.

Assays:
HLA-DR2 = HLA-DR2 (Homo sapiens, UniProt P01903+P01911); conditions: cited from earlier work
HLA-DR3 [1] = conditions: cited from earlier work; for known binding of peptide to HLA-DR3: Sidney et al., 2002
HLA-DR1 [2] = biological target: T1, HLA-DR1 (Homo sapiens, UniProt P01903+P01911, A100R/D57E/F55L/F60I/F76Y/I96L/L162R/M171V/P40L/Q125E/R42F/V115G/Y59C); format: binding; set-up: biotin (biotinylated)
HLA-DR1 [3] = biological target: T1, HLA-DR1; conditions: cited from earlier work; for known binding of peptide to HLA-DR1: Sidney et al., 2002
HLA-DR3 [4] = tested on: HLA-DR3
HLA-DRB1*01:01 = HLA-DRB1*01:01 (Homo sapiens, UniProt P01903+P01911, A100R/D57E/F55L/F60I/F76Y/I96L/L162R/M171V/P40L/Q125E/R42F/V115G/Y59C); assay: Peptide-MHC binding assay: conjugate incubated with recombinant MHC, captured with anti-HLA-DR antibody (L243) beads, qPCR

| Substance | affinity of peptide for purified DR2 (HLA-DR2) | known binding of peptide to HLA-DR3 (HLA-DR3 [1]) | known binding of peptide to HLA-DR1 (HLA-DR1 [3]) | known binding of peptide to HLA-DRB1*01:01 (HLA-DR1 [3]) | binding of peptide-cDNA conjugate to MHC molecule (HLA-DR3 [4]) | enrichment in the DR1 condition compared to beads only (HLA-DRB1*01:01) | known affinity of peptide for the HLA-DR1 molecule (HLA-DR1 [3]) | other results |
| --- | --- | --- | --- | --- | --- | --- | --- | --- |
| MBP(85-99): peptide of human myelin basic protein, residues 85-99 (PGSRPHLIRLFSRDA; UniProt P02686 85-99, looked up, fragment) | high affinity |  |  |  |  |  |  |  |
| MBP(148-162): peptide of human myelin basic protein, residues 148-162 (YLATASTMDHARHGF; UniProt P02686 148-162, looked up, fragment) | lower but significant |  |  |  |  |  |  |  |
| YKTIAFDEEARR |  | bind | without cross-binding | not bind | bound to the expected MHC molecule | no such enrichment |  | known binding of peptide to HLA-DRB1*03:01 (HLA-DR3 [1]): bind; binding of peptide-cDNA conjugate to MHC molecule (HLA-DR1 [2]; biotinylated HLA-DR1, overnight incubation, gel electrophoresis and qPCR readouts): not to the other HLA-DR family member; enrichment of signal in the DR1 condition compared to beads only (DR1): ~1000 fold |
| YPKAVKQNTLKLAT [YP (Y4A)] |  |  |  |  |  |  | low | profile of binding to HLA-DR1 (HLA-DR1 [2]; conjugates incubated and detected as a mixture (3-plex), qPCR): low; profile of binding to HLA-DR1 (HLA-DR1 [2]; conjugates present individually (1-plex), qPCR): low |
| YPKYVKQNTLKLAT |  | without cross-binding | bind | bind | not to the other HLA-DR family member | ~1000 fold | high | binding of peptide-cDNA conjugate to MHC molecule (HLA-DR1 [2]): bound to the expected MHC molecule; profile of binding to HLA-DR1 (HLA-DR1 [2]): high; enrichment of conjugate binding to DR1 over beads (HLA-DRB1*01:01): ~100 fold |
